# Test results as given in patent US20220098196A1, “TRAPPING-FREE PARP INHIBITORS” (The Board of Regents of the University of Texas System, priority 2019, published 2022).
# Columns and labels:
# C2C12 myotubes = assay: NAD+ measurement in C2C12 myotubes after MMS; assay type: cell-based, mouse; conditions: 5 μM 24 hours pretreatment, MMS 0.01% 4 hours (MMS alone 31%)
# Protocol: ATP and NAD^+ measurement. ATP levels were measured by a luminescence assay using the CellTiter-Glo luminescent kit (Promega). […] The cells were balanced for 30 min at RT. One hundred microliters of the CellTiter-Glo reagent was added into each well and incubated for 10 min. ATP levels were determined according the manufacturer's instruction. NAD^+ levels were assayed using an NAD/NADH quantification kit (Sigma). […] Approximately 2×10^5 cells were washed with 1 mL cold PBS and lysed in 400 μl of the extraction buffer. […] The samples were vortexed for 15 sec and centrifuged at 13,000 g for 10 min to remove the insoluble materials. NAD^+ was quantified according to the manufacturer's instruction (Sigma). Fifty microliters of the extracts were used in the NAD^+ assay, and the values were normalized by the amount of protein in each sample.
# PARP1 = PARP1 (Homo sapiens, UniProt P09874); assay: TMT quantitative proteomics in BT-549 cells, PARP1; assay type: cell-based; conditions: iRucaparib 5 μM or VHL-Rucaparib 20 μM, 24 hours, 8,207 quantified proteins
# Source text: Quantitative Mass Spectrometry.
# Proteins were then extracted using methanol-chloroform precipitation.
# The maximum intensity of each reporter ion was extracted.
# PARP1, sequence (P09874 whole entry): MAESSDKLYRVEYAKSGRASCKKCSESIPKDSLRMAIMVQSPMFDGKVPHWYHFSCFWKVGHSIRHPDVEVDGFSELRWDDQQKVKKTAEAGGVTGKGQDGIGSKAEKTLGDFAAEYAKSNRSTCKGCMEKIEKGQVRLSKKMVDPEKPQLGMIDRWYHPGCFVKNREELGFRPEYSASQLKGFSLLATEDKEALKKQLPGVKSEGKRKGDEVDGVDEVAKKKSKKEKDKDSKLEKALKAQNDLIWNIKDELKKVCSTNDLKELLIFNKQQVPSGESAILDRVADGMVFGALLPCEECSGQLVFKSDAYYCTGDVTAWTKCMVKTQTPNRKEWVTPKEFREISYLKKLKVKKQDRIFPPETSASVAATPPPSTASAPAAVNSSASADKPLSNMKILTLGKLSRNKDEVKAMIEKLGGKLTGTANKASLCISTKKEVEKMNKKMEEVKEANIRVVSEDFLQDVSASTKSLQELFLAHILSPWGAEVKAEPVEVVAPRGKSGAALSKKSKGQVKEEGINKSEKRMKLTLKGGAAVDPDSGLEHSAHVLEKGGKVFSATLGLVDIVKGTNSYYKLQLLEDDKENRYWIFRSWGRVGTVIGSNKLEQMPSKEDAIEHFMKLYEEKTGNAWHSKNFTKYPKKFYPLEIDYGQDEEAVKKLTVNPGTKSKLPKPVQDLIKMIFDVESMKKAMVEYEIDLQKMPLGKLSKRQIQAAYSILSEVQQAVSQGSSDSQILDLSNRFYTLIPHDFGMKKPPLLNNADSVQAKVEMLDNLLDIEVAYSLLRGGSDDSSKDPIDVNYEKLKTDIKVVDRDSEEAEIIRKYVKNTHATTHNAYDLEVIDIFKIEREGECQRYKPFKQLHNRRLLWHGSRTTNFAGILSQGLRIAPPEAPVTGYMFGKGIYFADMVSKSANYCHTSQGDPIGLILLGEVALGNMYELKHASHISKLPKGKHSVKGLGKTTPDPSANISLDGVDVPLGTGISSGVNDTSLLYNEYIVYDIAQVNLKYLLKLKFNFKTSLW
structure (smiles),measurement,setting,value
"CN(CCCCc1cn(CCOCCOCCOCCNc2cccc3c2C(=O)N(C2CCC(=O)NC2=O)C3=O)nn1)Cc1ccc(-c2[nH]c3cc(F)cc4c3c2CCNC4=O)cc1 (centres unmarked) [iRucaparib, Rucaparib-Triazole-PEG3-Pomalidomide]","NAD+ levels, % of that in control cells",C2C12 myotubes,74%
same,PARP1 downregulation,PARP1,one of the most significantly downregulated proteins
